From patent US9783536B2, “Nitrogen-containing heterocyclic compound or salt thereof” (FUJIFILM Corporation, priority 2013, dated 2017)
Like-named read-outs stand apart in the source and are kept apart here.

Key:
human PI3Kα protein = target: T1, human PI3Kα protein (Homo sapiens, UniProt P42336); assay: PI3Kα enzyme assay (ADP-Glo); format: biochemical; conditions: read-out: PI3Kα enzyme inhibitory activity
T1 construct: purchased Carna Biosciences, Inc; host or cells: baculovirus expression system
Procedure, shortened: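 Biotinylated human PI3Kα (baculovirus-expressed, 4.5 nmol/L) pre-incubated 15 min with compound in Tris-HCl pH 7.5, MgCl2, BSA; reaction 60 min at 25° C with 50 μmol/L PIP2 and 100 μmol/L ATP final. ADP quantified by ADP-Glo luminescence; IC50 calculated.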

[1] = target: T2, GST fusion human ERK2 protein (Homo sapiens, UniProt P28482); assay: ERK2 enzyme assay (1); format: biochemical; conditions: read-out: ERK2 enzyme inhibitory activity (1)
T2 construct: purchased Carna Biosciences, Inc; host or cells: E. coli expression system
Procedure, shortened: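 Enzyme (2.5 nmol/L, E. coli-expressed) preincubated with compound 15 min at room temperature in HEPES/MgCl2/DTT/Brij35 buffer, pH 7.5; reaction with 4.25 μmol/L FL-Peptide 8 and 43.1 μmol/L ATP for 120 min at 25 °C. Phosphorylated peptide fraction quantified by mobility-shift separation after EDTA stop; IC50 calculated.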

[2] = 4.5 nmol/L PI3Kα, PIP2 50 μmol/L, ATP 100 μmol/L
[3] = 2.5 nmol/L ERK2, ATP 43.1 μmol/L

T1 sequence (P42336 whole entry): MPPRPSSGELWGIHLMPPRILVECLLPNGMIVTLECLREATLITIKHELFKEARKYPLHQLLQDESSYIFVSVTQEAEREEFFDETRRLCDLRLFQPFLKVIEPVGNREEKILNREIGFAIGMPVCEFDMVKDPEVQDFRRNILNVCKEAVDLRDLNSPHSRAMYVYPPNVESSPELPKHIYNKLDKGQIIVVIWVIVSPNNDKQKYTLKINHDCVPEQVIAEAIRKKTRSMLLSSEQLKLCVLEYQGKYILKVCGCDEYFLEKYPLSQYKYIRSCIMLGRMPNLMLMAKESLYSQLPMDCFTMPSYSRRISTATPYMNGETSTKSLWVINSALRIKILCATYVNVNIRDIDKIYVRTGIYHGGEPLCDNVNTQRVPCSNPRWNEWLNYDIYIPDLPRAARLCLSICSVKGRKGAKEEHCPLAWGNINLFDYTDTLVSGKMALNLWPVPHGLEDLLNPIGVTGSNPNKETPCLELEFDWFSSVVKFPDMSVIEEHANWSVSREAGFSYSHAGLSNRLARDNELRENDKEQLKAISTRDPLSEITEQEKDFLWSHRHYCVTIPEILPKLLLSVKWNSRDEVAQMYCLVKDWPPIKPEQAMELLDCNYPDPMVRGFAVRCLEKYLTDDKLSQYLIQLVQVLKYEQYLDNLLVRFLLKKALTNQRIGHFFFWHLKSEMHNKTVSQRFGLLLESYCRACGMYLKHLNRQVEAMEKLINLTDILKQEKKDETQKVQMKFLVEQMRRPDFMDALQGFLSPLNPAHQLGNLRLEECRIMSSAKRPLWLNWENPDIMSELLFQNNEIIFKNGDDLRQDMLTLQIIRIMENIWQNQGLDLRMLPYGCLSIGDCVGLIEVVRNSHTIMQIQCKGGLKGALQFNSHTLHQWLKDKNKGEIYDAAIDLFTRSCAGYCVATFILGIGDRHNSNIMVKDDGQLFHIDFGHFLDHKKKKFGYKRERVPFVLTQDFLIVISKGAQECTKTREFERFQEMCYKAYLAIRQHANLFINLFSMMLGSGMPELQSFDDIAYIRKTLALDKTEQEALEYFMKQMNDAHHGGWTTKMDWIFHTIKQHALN
T1 sequence (P27986 whole entry partner): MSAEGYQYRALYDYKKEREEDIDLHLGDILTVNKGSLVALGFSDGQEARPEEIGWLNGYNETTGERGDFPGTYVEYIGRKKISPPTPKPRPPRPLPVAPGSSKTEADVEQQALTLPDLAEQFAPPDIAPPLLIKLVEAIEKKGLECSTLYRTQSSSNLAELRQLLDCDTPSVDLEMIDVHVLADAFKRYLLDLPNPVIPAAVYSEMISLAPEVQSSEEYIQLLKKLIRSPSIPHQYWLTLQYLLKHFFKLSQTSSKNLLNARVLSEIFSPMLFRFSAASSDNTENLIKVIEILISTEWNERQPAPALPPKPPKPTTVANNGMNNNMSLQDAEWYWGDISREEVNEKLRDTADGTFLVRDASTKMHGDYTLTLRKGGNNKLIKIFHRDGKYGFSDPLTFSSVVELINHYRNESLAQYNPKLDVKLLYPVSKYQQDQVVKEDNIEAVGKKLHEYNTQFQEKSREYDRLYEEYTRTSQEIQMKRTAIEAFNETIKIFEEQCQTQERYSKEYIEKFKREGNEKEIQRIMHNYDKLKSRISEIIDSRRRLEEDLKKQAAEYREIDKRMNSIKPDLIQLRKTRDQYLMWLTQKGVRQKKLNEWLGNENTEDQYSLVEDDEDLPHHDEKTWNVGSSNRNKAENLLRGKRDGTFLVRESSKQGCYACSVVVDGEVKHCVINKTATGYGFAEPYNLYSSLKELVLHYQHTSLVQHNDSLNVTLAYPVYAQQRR
T2 sequence (P28482 whole entry, the tested form may be a part): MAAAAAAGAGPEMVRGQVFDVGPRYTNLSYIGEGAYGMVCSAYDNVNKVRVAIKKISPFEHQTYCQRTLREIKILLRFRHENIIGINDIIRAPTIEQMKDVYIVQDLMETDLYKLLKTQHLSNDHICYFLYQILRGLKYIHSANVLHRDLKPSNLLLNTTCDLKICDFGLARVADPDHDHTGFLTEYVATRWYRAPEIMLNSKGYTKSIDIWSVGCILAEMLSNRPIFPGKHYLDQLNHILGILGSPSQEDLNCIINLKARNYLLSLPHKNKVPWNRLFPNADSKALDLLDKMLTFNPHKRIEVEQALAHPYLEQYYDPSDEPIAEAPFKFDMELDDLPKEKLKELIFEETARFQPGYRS

| Compound | IC50 (human PI3Kα protein) [nM] | IC50 ([1]; ERK2 enzyme assay (1)) [nM] | IC50 (human PI3Kα protein; [2]) [nM] | IC50 [1, 3] [nM] |
| --- | --- | --- | --- | --- |
| c1nc2ccc(Nc3nnc(C4CCCO4)s3)nc2cc1-c1cnn(C2CCNCC2)c1 (centres unmarked) [Example 0324, N-(7-(1-(piperidin-4-yl)-1H-pyrazol-4-yl)-1,5-naphthyridin-2-yl)-5-(tetrahydrofuran-2-yl)-1,3,4-thiadiazole-2-amine] | < 1000 | < 1000 |  |  |
| COc1cc(Nc2cnc3ccc(Nc4nnc(C5CCCC5)s4)nc3c2)cc(OC)c1 [Example 0081] |  |  | 1000 to 10000 | < 1000 |
| CC(C)c1nnc(Nc2ccc3nccc(-c4ccccc4)c3n2)s1 [Example 0264, 5-isopropyl-N-(8-phenyl-1,5-naphthyridin-2-yl)-1,3,4-thiadiazole-2-amine] | 1000 to 10000 | < 1000 |  |  |
| Cc1nnc(Nc2ccc3ncc(Nc4cnn(C)c4)cc3n2)s1 [Example 0184] |  |  | 1000 to 10000 | < 1000 |
| CCOC(=O)c1cnc(Nc2ccc3ncc(-c4cnn(C)c4)cc3n2)s1 [Example 0035, ethyl 2-((7-(1-methyl-1H-pyrazol-4-yl)-1,5-naphthyridin-2-yl)amino)thiazole-5-carboxylate] |  |  | < 1000 | 1000 to 10000 |
| CCc1nn(CCCN2CCOCC2)cc1-c1cnc2ccc(Nc3cc(C(C)C)cnn3)nc2c1 [Example 0385, 7-(3-ethyl-1-(3-morpholinopropyl)-1H-pyrazol-4-yl)-N-(5-isopropylpyridazin-3-yl)-1,5-naphthyridine-2-amine] | < 1000 | < 1000 |  |  |
| c1ccc(CNc2cnc3ccc(Nc4nnc(C5CCCC5)s4)nc3c2)nc1 [Example 0068] |  |  | 1000 to 10000 | < 1000 |
| CS(=O)(=O)N1CCC(Nc2cnc3ccc(Nc4nnc(C5CCCC5)s4)nc3c2)C1 (centres unmarked) [Example 0108] |  |  | 1000 to 10000 | < 1000 |
| OCCc1nnc(Nc2ccc3ncc(-c4cnn(CCCN5CCCC5)c4)cc3n2)s1 [Example 0367] | < 1000 | < 1000 |  |  |
| CN1CCN(CCCn2cc(-c3cnc4ccc(Nc5nnc(C6CCCC6)s5)nc4c3)cn2)CC1 [Example 0197, 5-cyclopentyl-N-(7-(1-(3-(4-methylpiperazin-1-yl)propyl)-1H-pyrazol-4-yl)-1,5-naphthyridin-2-yl)-1,3,4-thiadiazole-2-amine] |  |  | < 1000 | < 1000 |
| c1cc(Nc2cnc3ccc(Nc4nnc(C5CCCC5)s4)nc3c2)ncn1 [Example 0210] | < 1000 | < 1000 |  |  |
| CC(C)c1nnc(Nc2ccc3ncc(-c4cn(C)nc4-c4ccccn4)cc3n2)s1 [Example 0136, 5-isopropyl-N-(7-(1-methyl-3-(pyridin-2-yl)-1H-pyrazol-4-yl)-1,5-naphthyridin-2-yl)-1,3,4-thiadiazole-2-amine] |  |  | < 1000 | < 1000 |
| CC(C)c1cnnc(Nc2ccc3ncc(-c4cnn(-c5cccnc5)c4)cc3n2)c1 [Example 0398, N-(5-isopropylpyridazin-3-yl)-7-(1-(pyridin-3-yl)-1H-pyrazol-4-yl)-1,5-naphthyridine-2-amine] | < 1000 | < 1000 |  |  |
| CN(C)CC(=O)N1CCN(c2cnc3ccc(Nc4nnc(C5CCCC5)s4)nc3c2)CC1 [Example 0059, 1-(4-(6-((5-cyclopentyl-1,3,4-thiadiazol-2-yl)amino)-1,5-naphthyridin-3-yl)piperazin-1-yl)-2-(dimethylamino)ethanone] |  |  | 1000 to 10000 | < 1000 |
| CCc1nn(CCCN2CCCC2)cc1-c1cnc2ccc(Nc3cc(C(C)C)cnn3)nc2c1 [Example 0386, 7-(3-ethyl-1-(3-(pyrrolidin-1-yl)propyl)-1H-pyrazol-4-yl)-N-(5-isopropylpyridazin-3-yl)-1,5-naphthyridine-2-amine] | < 1000 | < 1000 |  |  |
| CC(C)Cc1cnc(Nc2ccc3ncc(-c4cnn(CCCN5CCCC5)c4)cc3n2)s1 [Example 0144] |  |  | < 1000 | < 1000 |
| CC(C)c1cnnc(Nc2ccc3ncc(-c4cn(C)nc4CO)cc3n2)c1 [Example 0394, (4-(6-((5-isopropylpyridazin-3-yl)amino)-1,5-naphthyridin-3-yl)-1-methyl-1H-pyrazol-3-yl)methanol] | < 1000 | < 1000 |  |  |
| Cn1cc(-c2cnc3ccc(Nc4ncc(C5CCCC5)s4)nc3c2)cn1 [Example 0127] |  |  | 1000 to 10000 | < 1000 |
| COc1ccc(-c2cnc3ccc(Nc4nccs4)nc3c2)cc1OC [Example 0023, N-(7-(3,4-dimethoxyphenyl)-1,5-naphthyridin-2-yl)thiazole-2-amine] |  |  | 1000 to 10000 | 1000 to 10000 |
| CCc1nn(C)cc1-c1cnc2ccc(Nc3nnc(C4CCCC4)s3)nc2c1 [Example 0110, 5-cyclopentyl-N-(7-(3-ethyl-1-methyl-1H-pyrazol-4-yl)-1,5-naphthyridin-2-yl)-1,3,4-thiadiazole-2-amine] |  |  | < 1000 | < 1000 |

| Compound | IC50 (human PI3Kα protein) [nM] | IC50 ([1]; ERK2 enzyme assay (1)) [nM] | IC50 (human PI3Kα protein; [2]) [nM] | IC50 [1, 3] [nM] |
| --- | --- | --- | --- | --- |
| c1nc2ccc(Nc3nnc(C4CCCC4)s3)nc2cc1NC1CCOC1 (centres unmarked) [Example 0319, N^2-(5-cyclopentyl-1,3,4-thiadiazol-2-yl)-N^7-(tetrahydrofuran-3-yl)-1,5-naphthyridine-2,7-diamine] | < 1000 | < 1000 |  |  |
| CN1CC=C(c2cnc3ccc(Nc4nnc(C5CCCC5)s4)nc3c2)CC1 [Example 0333, 5-cyclopentyl-N-(7-(1-methyl-1,2,3,6-tetrahydropyridin-4-yl)-1,5-naphthyridin-2-yl)-1,3,4-thiadiazole-2-amine] | 1000 to 10000 | < 1000 |  |  |
| c1nc2ccc(Nc3nnc(C4CCCC4)s3)nc2cc1NC1CCOCC1 [Example 0312] | < 1000 | < 1000 |  |  |
| O=C(Cc1ccc(Nc2cnc3ccc(Nc4nnc(C5CCCC5)s4)nc3c2)cc1)N1CCOCC1 [Example 0105] |  |  | < 1000 | < 1000 |
| CC(O)c1nnc(Nc2ccc3ncc(-c4cnn(CCCN5CCCC5)c4)cc3n2)s1 (centres unmarked) [Example 0259] | < 1000 | < 1000 |  |  |
| CC(C)c1cnnc(Nc2ccc3ncc(-c4cnn(CCn5ccnc5)c4)cc3n2)c1 [Example 0380, 7-(1-(2-(1H-imidazol-1-yl)ethyl)-1H-pyrazol-4-yl)-N-(5-isopropylpyridazin-3-yl)-1,5-naphthyridine-2-amine] | < 1000 | < 1000 |  |  |
| COc1cnccc1-c1ccnc2ccc(Nc3nnc(C(C)C)s3)nc12 [Example 0279] | < 1000 | < 1000 |  |  |
| CC(C)c1nnc(Nc2ccc3nccc(Nc4ccnnc4)c3n2)s1 [Example 0008] |  |  | < 1000 | 1000 to 10000 |
| Cn1cc(-c2cnc3ccc(Nc4nnc(CCc5ccccc5)s4)nc3c2)cn1 [Example 0171, N-(7-(1-methyl-1H-pyrazol-4-yl)-1,5-naphthyridin-2-yl)-5-phenethyl-1,3,4-thiadiazole-2-amine] |  |  | 10000 to 50000 | < 1000 |
| Cc1nnc(Nc2ccc3ncc(N(C)c4cn[nH]c4)cc3n2)s1 [Example 0183, N^7-methyl-N^2-(5-methyl-1,3,4-thiadiazol-2-yl)-N^7-(1H-pyrazol-4-yl)-1,5-naphthyridine-2,7-diamine] |  |  | 1000 to 10000 | < 1000 |
| c1n[nH]cc1Nc1cnc2ccc(Nc3nnc(C4CCCC4)s3)nc2c1 [Example 0175, N^2-(5-cyclopentyl-1,3,4-thiadiazol-2-yl)-N^7-(1H-pyrazol-4-yl)-1,5-naphthyridine-2,7-diamine] |  |  | < 1000 | < 1000 |
| Cn1cc(-c2cnc3ccc(Nc4nnc[nH]4)nc3c2)cn1 [Example 0300, 7-(1-Methyl-1H-pyrazol-4-yl)-N-(4H-1,2,4-triazol-3-yl)-1,5-naphthyridine-2-amine] | 1000 to 10000 | < 1000 |  |  |
| CC(C)c1nnc(Nc2ccc3nccc(-c4cncnc4)c3n2)s1 [Example 0278, 5-isopropyl-N-(8-(pyrimidin-5-yl)-1,5-naphthyridin-2-yl)-1,3,4-thiadiazole-2-amine] | < 1000 | < 1000 |  |  |
| CC(C)c1nnc(Nc2ccc3nccc(-c4cnn(CCN5CCOCC5)c4)c3n2)s1 [Example 0274] | < 1000 | 1000 to 10000 |  |  |
| COCCc1nn(C)cc1-c1cnc2ccc(Nc3nnc(C(C)C)s3)nc2c1 [Example 0389, 5-isopropyl-N-(7-(3-(2-methoxyethyl)-1-methyl-1H-pyrazol-4-yl)-1,5-naphthyridin-2-yl)-1,3,4-thiadiazole-2-amine] | < 1000 | < 1000 |  |  |
| Cn1cc(-c2cnc3ccc(Nc4cccnc4)nc3c2)cn1 [Example 0038] |  |  | 10000 to 50000 | 1000 to 10000 |
| COc1ccc(Nc2cnc3ccc(Nc4nnc(C5CCCC5)s4)nc3c2)cn1 [Example 0067] |  |  | < 1000 | < 1000 |
| c1nc2ccc(Nc3nnc(C4CCCCO4)s3)nc2cc1-c1cnn(CCCN2CCCC2)c1 (centres unmarked) [Example 0244, N-(7-(1-(3-(pyrrolidin-1-yl)propyl)-1H-pyrazol-4-yl)-1,5-naphthyridin-2-yl)-5-(tetrahydro-2H-pyran-2-yl)-1,3,4-thiadiazole-2-amine] | < 1000 | < 1000 |  |  |
| Cc1cnnc(Nc2ccc3ncc(-c4cn(C)nc4CO[Si](C)(C)C(C)(C)C)cc3n2)c1 [Example 0396, 7-(3-(((tert-butyldimethylsilyl)oxy)methyl)-1-methyl-1H-pyrazol-4-yl)-N-(5-methylpyridazin-3-yl)-1,5-naphthyridine-2-amine] | 10000 to 50000 | < 1000 |  |  |
| Cc1nnc(Nc2ccc3ncc(N(C)c4cnn(C)c4)cc3n2)s1 [Example 0185, N^7-methyl-N^2-(5-methyl-1,3,4-thiadiazol-2-yl)-N^7-(1-methyl-1H-pyrazol-4-yl)-1,5-naphthyridine-2,7-diamine] |  |  | < 1000 | < 1000 |
